Measured values from PubChem BioAssay AID2060624 (Molecular Pharmacology Branch, DTP, NCI, 2025).

Tested on: 217524-143-R1-J4-PDC spheroids with HUVEC/MSC, viability
Assay: Anticancer human tumor 217524-143-R1-J4-PDC patient-derived pancreatic carcinoma cell line growth inhibition [CLK]
Details: for IC50: curve of first compound; for viability, T/C: stronger effect = lower value
Summary of the method: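 Multi-cell-type spheroids combined patient-derived tumor cells with HUVEC endothelial cells and human mesenchymal stem cells. Paired agents were dosed in half-log steps down from about clinical Cmax, or from 10 microM where Cmax was unknown.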

[1] = second compound 0.0316 µM, first compound 0.0316 µM
[2] = second compound 0.0316 µM, first compound 0.1 µM
[3] = second compound 0.0316 µM, first compound 0.316 µM
[4] = second compound 0.0316 µM, first compound 1 µM
[5] = second compound 0.0316 µM, first compound 3.16 µM
[6] = second compound 0.0316 µM, first compound 10 µM
[7] = second compound 0.1 µM, first compound 0.0316 µM
[8] = second compound 0.1 µM, first compound 0.1 µM
[9] = second compound 0.1 µM, first compound 0.316 µM
[10] = second compound 0.1 µM, first compound 1 µM
[11] = second compound 0.1 µM, first compound 3.16 µM
[12] = second compound 0.1 µM, first compound 10 µM
[13] = second compound 0.316 µM, first compound 0.0316 µM
[14] = second compound 0.316 µM, first compound 0.1 µM
[15] = second compound 0.316 µM, first compound 0.316 µM
[16] = second compound 0.316 µM, first compound 1 µM
[17] = second compound 0.316 µM, first compound 3.16 µM
[18] = second compound 0.316 µM, first compound 10 µM
[19] = second compound 1 µM, first compound 0.0316 µM
[20] = second compound 1 µM, first compound 0.1 µM
[21] = second compound 1 µM, first compound 0.316 µM
[22] = second compound 1 µM, first compound 1 µM
[23] = second compound 1 µM, first compound 3.16 µM
[24] = second compound 1 µM, first compound 10 µM
[25] = second compound 3.16 µM, first compound 0.0316 µM
[26] = second compound 3.16 µM, first compound 0.1 µM
[27] = second compound 3.16 µM, first compound 0.316 µM
[28] = second compound 3.16 µM, first compound 1 µM
[29] = second compound 3.16 µM, first compound 3.16 µM
[30] = second compound 3.16 µM, first compound 10 µM
[31] = second compound 10 µM, first compound 0.0316 µM
[32] = second compound 10 µM, first compound 0.1 µM
[33] = second compound 10 µM, first compound 0.316 µM
[34] = second compound 10 µM, first compound 1 µM
[35] = second compound 10 µM, first compound 3.16 µM
[36] = second compound 10 µM, first compound 10 µM
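Further: spheroids exposed to agents for seven days before reading.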
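Wherever viability, T/C is given: 100% = DMSO vehicle control viability.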

COc1ccc([C@@H](O)c2cc(-c3ncnc4cc(N5CCOCC5)ccc34)c(F)cc2Cl)nn1 + CN1CCN(c2cc(C(=O)Nc3cc4cc(-c5cnn(C)c5)ccc4cn3)ccn2)CC1
IC50 (second compound 0.0316 µM): 285 nM
IC50 (second compound 0.1 µM): < 31.6 nM
IC50 (second compound 0.316 µM): < 31.6 nM
IC50 (second compound 1 µM): < 31.6 nM
IC50 (second compound 3.16 µM): < 31.6 nM
IC50 (second compound 10 µM): < 31.6 nM
viability, T/C [1]: 70.4%
viability, T/C [2]: 59.8%
viability, T/C [3]: 46.9%
viability, T/C [4]: 38.5%
viability, T/C [5]: 26.1%
viability, T/C [6]: 10.6%
viability, T/C [7]: 39.6%
viability, T/C [8]: 50.7%
viability, T/C [9]: 29.8%
viability, T/C [10]: 24.4%
viability, T/C [11]: 16.2%
viability, T/C [12]: 10%
viability, T/C [13]: 18.1%
viability, T/C [14]: 18.4%
viability, T/C [15]: 15%
viability, T/C [16]: 13.4%
viability, T/C [17]: 10.7%
viability, T/C [18]: 6.07%
viability, T/C [19]: 1.28%
viability, T/C [20]: 0.91%
viability, T/C [21]: 1.1%
viability, T/C [22]: 0.93%
viability, T/C [23]: 0.91%
viability, T/C [24]: 0.91%
viability, T/C [25]: 0.52%
viability, T/C [26]: 0.54%
viability, T/C [27]: 0.73%
viability, T/C [28]: 0.44%
viability, T/C [29]: 1.02%
viability, T/C [30]: 1.29%
viability, T/C [31]: 0.08%
viability, T/C [32]: 0.12%
viability, T/C [33]: 0.21%
viability, T/C [34]: 0.18%
viability, T/C [35]: 0.22%
viability, T/C [36]: 0.36%

CCCS(=O)(=O)Nc1ccc(F)c(C(=O)c2c[nH]c3ncc(-c4ccc(Cl)cc4)cc23)c1F + CNC(=O)c1ccc(Nc2nc(OC3CCCC3)c3c(-c4ccc5nc(C)oc5c4)c[nH]c3n2)c(OC)c1
IC50 (second compound 0.0316 µM): > 10000 nM
IC50 (second compound 0.1 µM): < 31.6 nM
IC50 (second compound 0.316 µM): < 31.6 nM
IC50 (second compound 1 µM): < 31.6 nM
IC50 (second compound 3.16 µM): < 31.6 nM
IC50 (second compound 10 µM): < 31.6 nM
viability, T/C [1]: 76.2%
viability, T/C [2]: 83%
viability, T/C [3]: 99.1%
viability, T/C [4]: 130%
viability, T/C [5]: 139%
viability, T/C [6]: 57.1%
viability, T/C [7]: 40.1%
viability, T/C [8]: 49.2%
viability, T/C [9]: 49.9%
viability, T/C [10]: 67.3%
viability, T/C [11]: 76.6%
viability, T/C [12]: 40.1%
viability, T/C [13]: 41.5%
viability, T/C [14]: 38.8%
viability, T/C [15]: 45.6%
viability, T/C [16]: 58.1%
viability, T/C [17]: 59.2%
viability, T/C [18]: 31.2%
viability, T/C [19]: 35.1%
viability, T/C [20]: 35.1%
viability, T/C [21]: 46.9%
viability, T/C [22]: 45%
viability, T/C [23]: 49.3%
viability, T/C [24]: 24.1%
viability, T/C [25]: 32.1%
viability, T/C [26]: 31.6%
viability, T/C [27]: 34.6%
viability, T/C [28]: 47.6%
viability, T/C [29]: 42.1%
viability, T/C [30]: 17.6%
viability, T/C [31]: 29.6%
viability, T/C [32]: 26.5%
viability, T/C [33]: 38.7%
viability, T/C [34]: 34.9%
viability, T/C [35]: 42%
viability, T/C [36]: 18%

COC1C=CCC(C)C(C)S(=O)(=O)NC(=O)c2ccc3c(c2)N(CC2CCC21)CC1(CCCc2cc(Cl)ccc21)CO3 (stereo unspecified) + CNC(=O)c1ccc(Nc2nc(OC3CCCC3)c3c(-c4ccc5nc(C)oc5c4)c[nH]c3n2)c(OC)c1
IC50 (second compound 0.0316 µM): 7690 nM
IC50 (second compound 0.1 µM): < 31.6 nM
IC50 (second compound 0.316 µM): < 31.6 nM
IC50 (second compound 1 µM): < 31.6 nM
IC50 (second compound 3.16 µM): < 31.6 nM
IC50 (second compound 10 µM): < 31.6 nM
viability, T/C [1]: 83.2%
viability, T/C [2]: 91.3%
viability, T/C [3]: 95.8%
viability, T/C [4]: 114%
viability, T/C [5]: 108%
viability, T/C [6]: 35.6%
viability, T/C [7]: 46.6%
viability, T/C [8]: 43.9%
viability, T/C [9]: 72.9%
viability, T/C [10]: 75.3%
viability, T/C [11]: 91.2%
viability, T/C [12]: 33.1%
viability, T/C [13]: 34.2%
viability, T/C [14]: 38.8%
viability, T/C [15]: 39.4%
viability, T/C [16]: 29.6%
viability, T/C [17]: 31.9%
viability, T/C [18]: 33.7%
viability, T/C [19]: 30.1%
viability, T/C [20]: 29.3%
viability, T/C [21]: 27.4%
viability, T/C [22]: 22.1%
viability, T/C [23]: 20.9%
viability, T/C [24]: 24.2%
viability, T/C [25]: 26.9%
viability, T/C [26]: 25.1%
viability, T/C [27]: 22.3%
viability, T/C [28]: 20.6%
viability, T/C [29]: 23.5%
viability, T/C [30]: 23.9%
viability, T/C [31]: 29.8%
viability, T/C [32]: 21%
viability, T/C [33]: 17.9%
viability, T/C [34]: 18.5%
viability, T/C [35]: 17.5%
viability, T/C [36]: 22.3%
